Measured values taken from patent US20110306554A1, “PEPTIDE CAPABLE OF BINDING TO IMMUNOGLOBULIN” (priority 2009, published 2011).

Tested on: Monoclonal antibody cocktail-induced arthritis mice
Assay: Arthritis suppressing effects on arthritis-induced mice, Part 3
Assay type: in vivo
Details: 10 mg/kg intravenously once a day from day 4, 10 days
Protocol: Monoclonal antibody cocktail-induced arthritis mice were used to examine arthritis suppressing effects of peptides which are indicated as R13 and R17 in the section (3) in Example 2. Arthritis was caused by intravenous administration of 2 mg/mouse of an arthritis-inducing monoclonal antibody cocktail and three days later, intraperitoneal administration of 50 μg/mouse of LPS. The peptides were given via intraperitoneal or intravenous administration at a dose of 10 mg/kg once a day for a period of 10 consecutive days from four days after the administration of the arthritis-inducing monoclonal antibody cocktail, and arthritis suppressing effect was examined in terms of clinical score and hind-limb volume determination.
The required amount was calculated for each peptide, based on the animal weight. Each peptide solution was prepared using physiological saline (at 0.1 mg/ml for R1, 1 mg/ml for R2, and 1 or 10 mg/ml for R13 and R17), and cold stored. […]
Results of examinations were expressed by mean value±standard error and analyzed using EXSAS (Version 7.1.6, Arm Systex Co., Ltd.). […] Quantitative data, such as body weights and leg volumes, were subjected to Bartlett's test, followed by Dunnett's multiple comparison test when the variance was uniform or Steel's multiple comparison test when the variance was not uniform.

## KFTSKVPGLYYFVYH (Immunoglobulin binding peptide) [R17]
  arthritis-suppressing effect (clinical score): arthritis-suppressing effects comparable to those of the groups receiving administration of R1 (intravenously) or R2 (intraperitoneally)
